According to the supplement of paper PMC10307832:

Columns and labels:
Experiment in all cases: relative viability (nuclei count vs DMSO), 5 days (fraction); higher = more cells survive
Midostaurin + Olaparib = compound: CO[C@@H]1[C@H](N(C)C(=O)c2ccccc2)C[C@H]2O[C@]1(C)n1c3ccccc3c3c4c(c5c6ccccc6n2c5c31)C(=O)NC4 [Midostaurin] + O=C(c1cc(Cc2n[nH]c(=O)c3ccccc23)ccc1F)N1CCN(C(=O)C2CC2)CC1 [Olaparib] (partner 8 µM)
Procedure, shortened: (§1)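 One day after seeding in 1536-well plates, lung cancer cell lines were dosed by pin tool. Dosing was either single-drug or a fixed anchor-drug dose plus five library-drug doses (not always all listed) in √10 steps. After 5 days, nuclei were stained in one fix-and-stain step and counted on 4× images, and relative viability is the nuclei count of treated wells over that of vehicle wells, given as the median of duplicate plates.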

Midostaurin + Pictilisib = compound: CO[C@@H]1[C@H](N(C)C(=O)c2ccccc2)C[C@H]2O[C@]1(C)n1c3ccccc3c3c4c(c5c6ccccc6n2c5c31)C(=O)NC4 [Midostaurin] + CS(=O)(=O)N1CCN(Cc2cc3nc(-c4cccc5[nH]ncc45)nc(N4CCOCC4)c3s2)CC1 [Pictilisib] (partner 1 µM)
Procedure, shortened: as §1

Midostaurin + Bortezomib = compound: CO[C@@H]1[C@H](N(C)C(=O)c2ccccc2)C[C@H]2O[C@]1(C)n1c3ccccc3c3c4c(c5c6ccccc6n2c5c31)C(=O)NC4 [Midostaurin] + CC(C)C[C@H](NC(=O)[C@H](Cc1ccccc1)NC(=O)c1cnccn1)B(O)O [Bortezomib] (partner 0.002 µM)
Procedure, shortened: as §1

Midostaurin + OSI-027 = compound: CO[C@@H]1[C@H](N(C)C(=O)c2ccccc2)C[C@H]2O[C@]1(C)n1c3ccccc3c3c4c(c5c6ccccc6n2c5c31)C(=O)NC4 [Midostaurin] + COc1cccc2cc(-c3nc([C@H]4CC[C@H](C(=O)O)CC4)n4ncnc(N)c34)[nH]c12 [OSI-027] (partner 0.5 µM)
Procedure, shortened: as §1

[1] = compound: COc1cc(-c2nn([C@H]3CC[C@H](N4CCN(C(C)=O)CC4)CC3)c3ncnc(N)c23)ccc1NC(=O)c1cc2ccccc2n1C + NC(=O)Nc1cc(-c2cccc(F)c2)sc1C(=O)N[C@H]1CCCNC1 [AZD7762] (partner 0.2 µM)
Procedure, shortened: as §1

Cell Line	relative viability (Midostaurin + Olaparib; first compound 0.01 µM)	relative viability (Midostaurin + Olaparib; first compound 0.03162 µM)	relative viability (Midostaurin + Olaparib; first compound 0.1 µM)	relative viability (Midostaurin + Olaparib; first compound 0.3162 µM)	relative viability (Midostaurin + Pictilisib; first compound 0.01 µM)	relative viability (Midostaurin + Pictilisib; first compound 0.03162 µM)	relative viability (Midostaurin + Pictilisib; first compound 0.1 µM)	relative viability (Midostaurin + Pictilisib; first compound 0.3162 µM)	relative viability (Midostaurin + Bortezomib; first compound 0.01 µM)	relative viability (Midostaurin + Bortezomib; first compound 0.03162 µM)	relative viability (Midostaurin + Bortezomib; first compound 0.1 µM)	relative viability (Midostaurin + Bortezomib; first compound 0.3162 µM)	relative viability (Midostaurin + OSI-027; first compound 0.01 µM)	relative viability (Midostaurin + OSI-027; first compound 0.03162 µM)	relative viability (Midostaurin + OSI-027; first compound 0.1 µM)	relative viability (Midostaurin + OSI-027; first compound 0.3162 µM)	relative viability ([1]; first compound 0.0128 µM)	relative viability ([1]; first compound 0.04048 µM)	relative viability ([1]; first compound 0.128 µM)	relative viability ([1]; first compound 1.28 µM)
NCI-H1299	0.919	0.942	0.985	0.924	0.838	0.73	0.527	0.273	1.03	0.987	0.95	1.01								
NCI-H1395	0.44	0.468	0.454	0.465	0.592	0.588	0.588	0.615					0.591	0.675	0.615	0.763	0.459	0.394	0.402	0.322
NCI-H1563					0.605	0.722	0.599	0.692	0.888	0.937	0.761	0.888	0.766	0.727	0.72	0.745				
NCI-H1648	1.08			0.767									0.285	0.221	0.275	0.233	0.686	0.609	0.75	0.566
NCI-H1650	0.945	0.793	0.727	0.703	0.616	0.592	0.657	0.569	0.214	0.227	0.206	0.213	0.574	0.71	0.647	0.597				
NCI-H1703	0.507	0.421	0.298	0.216	0.276	0.226	0.245	0.197	0.427	0.256	0.373	0.153					0.138	0.114	0.129	0.117
NCI-H1793	0.923	0.804	0.644	0.431	0.378	0.097	0.217	0.49					0.319	0.287	0.263	0.216	0.591	0.341	0.326	0.192
NCI-H1944	0.388	0.433	0.402	0.429	0.388	0.294	0.372	0.327					0.385	0.399	0.416	0.411	0.605	0.539	0.485	0.352
NCI-H2009	0.696	0.668	0.611	0.512	0.891	0.833	0.752	0.555	0.882	0.981	0.942	0.809	0.542	0.522	0.453	0.426				
NCI-H2023	0.494	0.505	0.396	0.246	0.235	0.249	0.208	0.186	0.974	0.961	0.963	0.567	0.426	0.385	0.41	0.302				
NCI-H2170	0.569	0.569	0.551	0.54	0.31	0.28	0.301	0.317					0.697	0.681	0.683	0.79	0.914	0.928	0.788	0.6
NCI-H2228	0.618	0.588	0.744	0.556	0.422	0.454	0.452	0.617	1.21	1.19	1	0.942	0.652	0.603	0.687	0.703				
NCI-H2342	0.419	0.394	0.422	0.489									0.667	0.619	0.658	0.74	0.464	0.422	0.477	0.361
SK-LU-1	0.471	0.439	0.443	0.346	0.602	0.676	0.56	0.572	1.15	1.31	1.36	1.19	0.347	0.333	0.321	0.271				
SK-MES-1	0.634	0.595	0.66	0.473	0.412	0.332	0.431	0.368					0.55	0.531	0.548	0.44				
SW 900	0.826	1.08	0.852	0.575									0.541	0.484	0.75	0.478	0.547	0.564	0.612	0.402
SW 1573	0.503	0.547	0.403	0.249	0.557	0.474	0.456	0.454	0.966	0.988	1.15	1.05	0.619	0.82	0.581	0.748				
UMC-11	0.354	0.387	0.303	0.207	0.859	0.602	0.871	0.663	0.734	0.591	0.508	0.34	0.473	0.463	0.536	0.293				
